Here are results for two compounds from patent US20250000874A1, “BACTERIAL METABOLITES AND THEIR USE IN REDUCING INFLAMMATION” (LOYOLA UNIVERSITY OF CHICAGO, priority 2023, published 2025).

Molecules are shown by their SMILES.

One test relates to NLRP3 inflammasome. Description: JE on IL-1β production and caspase-1 activation by BMDMs upon NLRP3 activation. The format is cell-based, mouse. To be noted: for IL-1β production upon NLRP3 activation with ATP: 5 mM ATP. As to the method:
(§1) FIG. 19. The Effect of JE on IL-1β Production by BMDMs Upon NLRP3 Activation. Macrophages were pretreated with the metabolite JE at a concentration of 50 μM overnight at 37° C., 5% CO2. The following day, macrophages were primed with LPS at 500 ng/ml for 4 hours and then activated by ATP for 1 hour at 37° C., 5% CO2. Another approach is to prime the cells with 10 ng/ml LPS for 4 hours, then pretreat with JE overnight. The following day, macrophages were activated with 5 mM ATP for an hour at 37° C., 5% CO2. Supernatants were collected, and […] was measured using ELISA. Data are presented as mean±SEM (n=6). **p<0.01. One of three experiments is shown.
as §1, with “20.” for “19.”
FIG. 21. The Impact of JE on Caspase-1 Activation After Priming the Cells with LPS. BMDMs were cultured and seeded as described before. Macrophages were first primed with LPS for 4 hours at 37° C. with 5% CO2. After that, they were treated with the metabolite JE for 1 (LPS1ATP), 2 (LPS2ATP), and 3 (LPS3ATP) hours. Then, the cells were exposed to media containing 5 mM ATP for 1 hour at 37° C. with 5% CO2. Finally, the supernatants were collected and the level of IL-1β was measured using ELISA. Data are presented as mean±SEM (n=6). *p<0.05; ***p<0.001. One of two experiments is shown.
Next, we explored how JE inhibits caspase-1 activation as well as IL-1β production. As stated above, NLRP3 activation adopts a two-step dogma: priming with LPS, followed by activation by ATP, nigericin, or MSU crystals. […] To achieve that, JE was used to pretreat BMDMs overnight at 37° C., 5% CO2; the next day, macrophages were primed with LPS for 4 hours, then stimulated with ATP for an hour. I collected the supernatant and measured IL-1β by ELISA.
In an attempt to determine whether JE inhibits the priming or the activation step, BMDMs were stimulated with LPS, then the metabolite JE was used to treat the cells overnight at 37° C., 5% CO2. The following day, macrophages were stimulated with ATP for an hour, then, supernatant was collected to measure IL-1β by ELISA. PBS was used as a control to JE in this experiment. In both conditions, I did a western blot on caspase-1 to elucidate whether JE inhibits caspase-1 activation or not.
It was also evident by the absence of active caspase-1 in the supernatant on western blot analysis (data not shown). To determine whether JE inhibits the activation signal, instead of pretreating the macrophages with JE overnight. BMDMs were treated with the metabolite JE for 1 hour, 2 hours, and 3 hours after priming with LPS for 4 hours; then 5 mM of ATP was.

Test [1] has as its system phosphorylated NFκB (ser536). Description: NC on phospho-NFκB (ser536) levels in stimulated Raw 264.7 macrophages. The class given is cell-based, mouse. The method, then: FIG. 31. Compound NC on phospho-NFκB (ser536) levels in stimulated macrophages. Raw 264.7 macrophages were incubated with 50 μM of NC for 18 hours prior to stimulation with LPS or Poly I:C. Whole cell lysates were collected after 2 hours and the level of phosphorylated NFκB (Phosphoserine 536) was quantified for endpoint absorbance at […] and normalized to absorbance of untreated, unstimulated cells. Mean and p values were computed using R base and dplyr packages using normalized values.
TRIF can participate in TNFα signaling through two distinct mechanisms. Firstly, TRIF can signal NFκB through TRAF6 to increase TNFα transcription. Secondly, TRIF activation can enhance the translation of TNFα mRNA through prolonged MK-2 activation. To determine whether NC reduces TNFα release by blocking TNFα transcription or translation, we collected cell lysates and quantified the levels of phosphorylated NFκB (ser536). Lysates of Raw 264.7 cells treated with NC prior to stimulation with LPS or Poly I:C contained more phosphorylated NFκB (ser536) than untreated cells (FIG. 31). There was no difference in phosphorylated NFκB (ser536) in unstimulated cells treated with NC.

In the case of `CC(=O)O[C@@H]1CC[C@H]2[C@H]3CC[C@H]4CC(F)(F)CC[C@]4(C)[C@H]3CC[C@]12C` [JE, 3,3-Difluoro-5-alpha-androstan-17-beta-yl acetate], the “IL-β upon activation of NLRP3 inflammasome” value in the test with NLRP3 inflammasome (JE 50 μM pretreatment overnight, LPS priming 4 hours, ATP 1 hour) is given as “completely abolished”. The “IL-1β production upon NLRP3 activation with ATP” value is on record as “did not have the same effect” with NLRP3 inflammasome (JE for 1 hour after priming with LPS 4 hours), “did not have the same effect” with NLRP3 inflammasome (JE for 2 hours after priming with LPS 4 hours) and “significantly decrease” with NLRP3 inflammasome (JE for 3 hours after priming with LPS 4 hours). Also, the “active caspase-1 in the supernatant (western blot)” value with NLRP3 inflammasome (JE pretreatment, LPS priming, ATP) is “absence”.
Consider `CCCCCCCCCCCCCCCC(=O)N[C@@H](C(=O)O)[C@H](C)O` [NC, N-Palmitoyl-D-Threonine], for which the “phosphorylated NFκB (ser536) level” value in test [1] (50 μM NC 18 hours, LPS, lysates after 2 hours) is “more and significantly decreases”; in test [1] (50 μM NC 18 hours, Poly I:C, lysates after 2 hours) it was “more and significantly decreases”; in test [1] (NC, unstimulated cells), “no difference”.
